Values quoted from earlier work in publication PMC5579141.

Assay: not told

SMILES | log partition benzene / water [log10] | log partition dibutyl ether / water [log10] | log partition dichloromethane / water [log10] | log partition heptane / water [log10] | log partition hexanol / water [log10] | log partition nitrobenzene / water [log10] | log partition nonanol / water [log10] | log partition octane / water [log10] | log partition tetrachloromethane / water [log10] | log partition toluene / water [log10] | log partition trichloromethane / water [log10] | further results
CC(=O)CC(=O)c1ccccc1 | 3.05 | 2.36 | 3.48 | 2.03 | 2.48 | 3.19 | 2.43 | 2.00 | 2.77 | 2.91 | 3.50 | log partition 1,2-dichloroethane / water: 3.23 log10; log partition bromobenzene / water: 3.36 log10; log partition chlorobenzene / water: 3.13 log10; log partition cyclohexane / water: 2.11 log10; log partition decane / water: 2.00 log10; log partition decanol / water: 2.38 log10; log partition m-xylene / water: 2.81 log10; log partition nonane / water: 1.97 log10; log partition octanol / water: 2.52 log10
CC(=O)CC(=O)C(F)(F)F | 0.15 | 0.08 | 0.40 | −0.57 | 0.62 | 0.30 | 0.59 | −0.62 | 0.02 | 0.13 | 0.33 | log partition dodecane / water: −0.76 log10; log partition ethylbenzene / water: −0.18 log10; log partition hexane / water: −0.51 log10; log partition pentanol / water: 0.52 log10
